Data reported in patent US20230203060A1 (GENFLEET THERAPEUTICS (SHANGHAI) INC., priority 2020, published 2023).
Where a name gives a salt, the structure may show the parent alone.

Molecular target: T1, KRAS G12C (Homo sapiens, UniProt P01116, G12C)
T1 construct: purchased Reactionbiology
Experiment: KRAS G12C NEA-HTRF experiment (SOS1-catalyzed displacement of GDP by GTP)
Assay type: biochemical
How it was run: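 His-tagged KRAS G12C preloaded with DY647-GDP was preincubated 15 min at 20 °C with compound, then exchanged with SOS1 (0.2 μM working solution) and GTP (200 μM working solution) for 2 h at 20 °C in the dark. HTRF 665/615 nm ratio with anti-His-Tb was normalised to T0 and no-compound controls; IC50 by four-parameter fit.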

T1 sequence (P01116 1-188 isoform P01116-2 G12C): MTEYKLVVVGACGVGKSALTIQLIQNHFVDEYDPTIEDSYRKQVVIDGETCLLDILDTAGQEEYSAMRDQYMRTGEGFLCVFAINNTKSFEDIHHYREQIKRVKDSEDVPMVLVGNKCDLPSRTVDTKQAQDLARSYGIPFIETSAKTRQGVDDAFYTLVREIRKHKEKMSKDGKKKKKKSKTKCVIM

SMILES | IC50 [nM]
C=CC(=O)N1CCN2C(=O)c3c(N4CCC(OC)C4(C)C)nc(-c4c(O)cccc4F)c(Cl)c3OC[C@H]2C1 (stereo partly drawn) [Z241a, (6aR)-8-acryloyl-4-chloro-3-(2-fluoro-6-hydroxyphenyl)-1-(3-methoxy-2,2-dimethylpyrrolidin-1-yl)-6,6a,7,8,9,10-hexahydro-12H-pyrazino[2,1-c]pyrido[3,4-f][1,4]oxazepin-12-one] | 9
C=CC(=O)N1CCN2C(=O)c3c(N4CCN(C)C(C)C4C)nc(-c4c(O)cccc4F)c(Cl)c3OC[C@H]2C1 (stereo partly drawn) [Z369, (6aR)-8-acryloyl-4-chloro-3-(2-fluoro-6-hydroxyphenyl)-1-(2,3,4-trimethylpiperazin-1-yl)-6,6a,7,8,9,10-hexahydro-12H-pyrazino[2,1-c]pyrido[3,4-f][1,4]oxazepin-12-one] | 68.6
C=CC(=O)N1CCN2C(=O)c3c(N4CC[C@@H](N(C)C)C4(C)C)nc(-c4c(O)cccc4F)c(Cl)c3OC[C@H]2C1 (single isomer, unassigned) [Z360-1] | 98.1
C=CC(=O)N1CCN2C(=O)c3c(N4CCN(C5CC5)C[C@@H]4C)nc(-c4c(O)cccc4F)c(Cl)c3OC[C@H]2C1 [Z312-1, (6aR)-8-acryloyl-4-chloro-1-((S)-4-cyclopropyl-2-methylpiperazin-1-yl)-3-(2-fluoro-6-hydroxyphenyl)-6,6a,7,8,9,10-hexahydro-12H-pyrazino[2,1-c]pyrido[3,4-f][1,4]oxazepin-12-one] | 134
C=CC(=O)N1CCN2C(=O)c3c(N4C[C@H](CO)CC4(C)C)nc(-c4c(O)cccc4F)c(Cl)c3OC[C@H]2C1 (single isomer, unassigned) [Z240-2] | 11
C=CC(=O)N1CCN2C(=O)c3c(N4CC[C@@H]5C[C@@H]54)nc(-c4c(O)cccc4F)c(Cl)c3OC[C@H]2C1 (single isomer, unassigned) [Z39-2] | 66
C=CC(=O)N1CCN2C(=O)c3c(N4CC(O)CC4(C)C)nc(-c4c(O)cccc4F)c(C)c3OC[C@H]2C1 (single isomer, unassigned) [Z336-2] | 27
C=CC(=O)N1CCN2C(=O)c3c(N4Cc5cn(C)nc5[C@H]4C)nc(-c4c(O)cccc4F)c(Cl)c3OC[C@H]2C1 (single isomer, unassigned) [Z291-1S, trifluoroacetate] | 76
C=CC(=O)N1CCN2C(=O)c3c(N4C[C@H](O)[C@H]4C)nc(-c4c(O)cccc4F)c(Cl)c3OC[C@H]2C1 (single isomer, unassigned) [Z102-4] | 103
C=CC(=O)N1CCN2C(=O)c3c(N4C[C@@H](OC)C[C@@H]4C)nc(-c4c(O)cccc4F)c(F)c3OC[C@H]2C1 [Z359-1, (6aR)-8-actyloyl-4-fluoro-3-(2-fluoro-6-hydroxyphenyl)-1-((2S,4S)-4-methoxy-2-methylpyrrolidin-1-yl)-6,6a,7,8,9,10-hexahydro-12H-pyrazino[2,1-c]pyrido[3,4-f][1,4]oxazepin-12-one] | 83.8
C=CC(=O)N1CCN2C(=O)c3c(N4CC[C@@H](OC)[C@@H]4C)nc(-c4c(O)cccc4F)c(Cl)c3OC[C@H]2C1 [Z338-1, (6aR)-8-acryloyl-4-chloro-3-(2-fluoro-6-hydroxyphenyl)-1-((2S,3R)-3-methoxy-2-methylpyrrolidin-1-yl)-6,6a,7,8,9,10-hexahydro-12H-pyrazino[2,1-c]pyrido[3,4-f][1,4]oxazepin-12-one] | 39
C=CC(=O)N1CCN2C(=O)c3c(N4CCC(N(C)C)C4(C)C)nc(-c4c(O)cccc4F)c(Cl)c3OC[C@H]2C1 (stereo partly drawn) [Z334, (6aR)-8-acryloyl-4-chloro-1-(3-(dimethylamino)-2,2-dimethylpyrrolidin-1-yl)-3-(2-fluoro-6-hydroxyphenyl)-6,6a,7,8,9,10-hexahydro-12H-pyrazino[2,1-c]pyrido[3,4-f][1,4]oxazepin-12-one] | 79
C=CC(=O)N1CCN2C(=O)c3c(N4Cc5cn(C)nc5C4C)nc(-c4c(O)cccc4F)c(Cl)c3OC[C@H]2C1 (some centres unmarked) [Z291-2] | 18
C=CC(=O)N1CCN2C(=O)c3c(N4CCN(C)C5(CC5)C4)nc(-c4c(O)cccc4F)c(Cl)c3OC[C@H]2C1 [Z83, (6aR)-8-acryloyl-4-chloro-3-(2-fluoro-6-hydroxyphenyl)-1-(4-methyl-4,7-diazaspiro[2 .5]octan-7-yl)-6,6a,7,8,9,10-hexahydro-12H-pyrazino[2,1-c]pyrido[3,4-f][1,4]oxazepin-12 (6aH)-one] | 111
C=CC(=O)N1CCN2C(=O)c3c(N4CC[C@@H](OC)C4(C)C)nc(-c4c(O)cccc4F)c(F)c3OC[C@H]2C1 (single isomer, unassigned) [Z327-1] | 26
C=CC(=O)N1CCN2C(=O)c3c(N4C[C@@H](N(C)C)CC4(C)C)nc(-c4c(O)cccc4F)c(Cl)c3OC[C@H]2C1 (single isomer, unassigned) [Z324-1] | 16
C=CC(=O)N1CCN2C(=O)c3c(N4CC(C)(O)CC4(C)C)nc(-c4c(O)cccc4F)c(Cl)c3OC[C@H]2C1 (stereo partly drawn) [Z243, (6aR)-8-acryloyl-4-chloro-3-(2-fluoro-6-hydroxyphenyl)-1-(4-hydroxy-2,2,4-trimethylpyrrolidin-1-yl)-6,6a,7,8,9,10-hexahydro-12H-pyrazino[2,1-c]pyrido[3,4-f][1,4]oxazepin-12-one] | 23
C=CC(=O)N1CCN2C(=O)c3c(N4CC(=O)N(CC)C[C@@H]4C)nc(-c4c(O)cccc4F)c(Cl)c3OC[C@H]2C1 [Z319-1, (6aR)-8-acryloyl-4-chloro-1-((S)-4-ethyl-2-methyl-5-oxopiperazin-1-yl)-3-(2-fluoro-6-hydroxyphenyl)-6,6a,7,8,9,10-hexahydro-12H-pyrazino[2,1-c]pyrido[3,4-f][1,4]oxazepin-12-one] | 9

SMILES | IC50 [nM]
C=CC(=O)N1CCN2C(=O)c3c(N4C[C@@H](OC)CC4(C)C)nc(-c4c(O)cccc4F)c(Cl)c3OC[C@H]2C1 (single isomer, unassigned) [Z244-1] | 26
C=CC(=O)N1CCN2C(=O)c3c(N4C[C@@H](N5CCOCC5)CC4(C)C)nc(-c4c(O)cccc4F)c(Cl)c3OC[C@H]2C1 (single isomer, unassigned) [Z297-2] | 8
C=CC(=O)N1CCN2C(=O)c3c(N4CCOCC4)nc(-c4nc(N)cc(C)c4C(F)(F)F)c(Cl)c3OC[C@H]2C1 [Z314] | 43
C=CC(=O)N1CCN2C(=O)c3c(N4CC[C@H](OC)C4(C)C)nc(-c4c(O)cccc4F)c(Cl)c3OC[C@H]2C1 (single isomer, unassigned) [Z241a-1] | 13
C=CC(=O)N1CCN2C(=O)c3c(N4CCN(C)C[C@@H]4C)nc(-c4nc(N)cc(C)c4C(F)(F)F)c(Cl)c3OC[C@H]2C1 [Z328-1, (R)-8-acryloyl-3-(6-amino-4-methyl-3-(trifluoromethyl)pyridin-2-yl)-4-chloro-1-((S)-2,4-dimethylpiperazin-1-yl)-6,6a,7,8,9,10-hexahydro-12H-pyrazino[2,1-c]pyrido[3,4-f][1,4]oxazepin-12-one] | 15
C=CC(=O)N1CCN2C(=O)c3c(N4C[C@@](C)(O)CC4(C)C)nc(-c4c(O)cccc4F)c(F)c3OC[C@H]2C1 (single isomer, unassigned) [Z256b-1] | 33
C=CC(=O)N1CCN2C(=O)c3c(N4CC[C@@H](OC)C4(C)C)nc(-c4c(O)cccc4F)c(Cl)c3OC[C@H]2C1 (single isomer, unassigned) [Z241a-2] | 5
C=CC(=O)N1CCN2C(=O)c3c(N4CCC[C@@]4(C)CO)nc(-c4c(O)cccc4F)c(Cl)c3OC[C@H]2C1 [Z279-2] | 29
C=CC(=O)N1CCN2C(=O)c3c(N4CCN(C(=O)CC)C[C@@H]4C)nc(-c4c(O)cccc4F)c(Cl)c3OC[C@H]2C1 [Z316-1, (6aR)-8-acryloyl-4-chloro-3-(2-fluoro-6-hydroxyphenyl)-1-((S)-2-methyl-4-propionylpiperazin-1-yl)-6,6a,7,8,9,10-hexahydro-12H-pyrazino[2,1-c]pyrido[3,4-f][1,4]oxazepin-12-one] | 9
C=CC(=O)N1CCN2C(=O)c3c(N4CCO[C@](C)(CO)C4)nc(-c4c(O)cccc4F)c(Cl)c3OC[C@H]2C1 (single isomer, unassigned) [Z333-1] | 191
C=CC(=O)N1CCN2C(=O)c3c(N4CC[C@H](N(C)C)C4(C)C)nc(-c4c(O)cccc4F)c(Cl)c3OC[C@H]2C1 (single isomer, unassigned) [Z360-2] | 36.9
C=CC(=O)N1CCN2C(=O)c3c(N4CCN(CCOC)C[C@@H]4C)nc(-c4c(O)cccc4F)c(Cl)c3OC[C@H]2C1 [Z257a, (6aR)-8-acryloyl-4-chloro-3-(2-fluoro-6-hydroxyphenyl)-1-((S)-4-(2-methoxyethyl)-2-methylpiperazin-1-yl)-6,6a,7,8,9,10-hexahydro-12H-pyrazino[2,1-c]pyrido[3,4-f][1,4]oxazepin-12-one] | 76
C=CC(=O)N1CCN2C(=O)c3c(N4CCO[C@](C)(COC)C4)nc(-c4c(O)cccc4F)c(Cl)c3OC[C@H]2C1 (single isomer, unassigned) [Z332-1] | 130
C=CC(=O)N1CCN2C(=O)c3c(N4C[C@@H](O)CC4(C)C)nc(-c4c(F)ccc(Cl)c4O)c(F)c3OC[C@H]2C1 (single isomer, unassigned) [Z341-1] | 35
C=CC(=O)N1CCN2C(=O)c3c(N4Cc5nn(C)cc5[C@@H]4C)nc(-c4c(O)cccc4F)c(Cl)c3OC[C@H]2C1 (single isomer, unassigned) [Z345-2] | 41
C=CC(=O)N1CCN2C(=O)c3c(N4Cc5cn(C)nc5C4(C)C)nc(-c4c(O)cccc4F)c(Cl)c3OC[C@H]2C1 [Z310, (6aR)-8-acryloyl-1-(2,6,6-trimethylpyrrolo[3,4-c]pyrazol-5(2H,4H,6H)-yl)-4-chloro-3-(2-fluoro-6-hydroxyphenyl)-6,6a,7,8,9,10-hexahydro-12H-pyrazino[2,1-c]pyrido[3,4-f][1,4]oxazepin-12-one] | 36
C=CC(=O)N1CCN2C(=O)c3c(N4CCN(CC)C(C)(C)C4)nc(-c4c(O)cccc4F)c(Cl)c3OC[C@H]2C1 [Z322, (6aR)-8-actyloyl-4-chloro-3-(2-fluoro-6-hydroxyphenyl)-1-(4-ethyl-3,3-dimethylpiperazin-1-yl)-6,6a,7,8,9,10-hexahydro-12H-pyrazino[2,1-c]pyrido[3,4-f][1,4]oxazepin-12-one] | 62
